Experimental data reported in patent publication US9328083B2, “2-aminated methylene or 2-esterified methylene tanshinone derivatives, and preparation method and application thereof” (HANGZHOU BENSHENG PHARMACEUTICAL CO., LTD., priority 2011, dated 2016).
In brackets after ≈: the same amount, converted by molar mass.

Tests used:
[1] = tested on: H9 (acute lymphoblastic leukemia, ALL); test: MTT growth inhibition of leukemia cells, 72 h; assay type: cell-based, human; conditions: Homo sapiens, H9, 72 h; for IC50: read-out: IC50; for IC90: read-out: IC90
Description: (§1) Leukemia cell lines: leukemia cell lines: K562/adr (drug-resistant, chronic myeloid leukemia, CML), NB4 (acute promyelocytic leukemia, AML), Kasumi-1 (acute myeloid leukemia M2 type, AML-M2), and Jurkat (acute lymphoblastic leukemia, ALL), all of which are donated by Cancer Research Institute of Zhejiang University, China; and H9 (acute lymphoblastic leukemia, ALL), which is purchased from China Center for Type Culture Collection (CCTCC).
(§2) The standard sample of tanshinone I (TA) and the 2-aminated methylene or 2-esterified methylene tanshinone I derivatives of the present invention are sufficiently dissolved with dimethylsulfoxide to produce a stock solution of 10 mg/mL, which is refrigerated at 4° C. and stored in dark, and is diluted with a cell culture medium to the desired concentration prior to experimentation.
(§3) Obtaining 6000 well-growing leukemia cells and inoculating them into wells of a 96-well cell culture plate. The culture medium is the RPMI-1640 cell culture medium containing 10% fetal bovine serum. After adding on the second day the 2-aminated methylene or 2-esterified methylene tanshinone I derivatives of different concentrations and mixing uniformly, placing the plate in a carbon dioxide cell incubator (5% CO2) at 37° C. and incubated for 72 hours. Then the viable cell concentration is determined by MTT method.

[2] = tested on: Jurkat (acute lymphoblastic leukemia, ALL); test: MTT growth inhibition of leukemia cells, 72 h; assay type: cell-based, human; conditions: Homo sapiens, 72 h; for IC50: read-out: IC50; for IC90: read-out: IC90
Description: as §1, §2, §3

[3] = tested on: K562/adr (drug-resistant, chronic myeloid leukemia, CML); test: MTT growth inhibition of leukemia cells, 72 h; assay type: cell-based, human; conditions: Homo sapiens, K562/Adr; for IC50: read-out: IC50; for IC90: read-out: IC90
Description: as §1, §2, §3

[4] = tested on: Kasumi-1 (acute myeloid leukemia M2 type, AML-M2); test: MTT growth inhibition of leukemia cells, 72 h; assay type: cell-based, human; conditions: Homo sapiens, Kasumi-1, 72 h; for IC50: read-out: IC50; for IC90: read-out: IC90
Description: as §1, §2, §3

[5] = tested on: NB4 (acute promyelocytic leukemia, AML); test: MTT growth inhibition of leukemia cells, 72 h; assay type: cell-based, human; conditions: Homo sapiens, NB4, 72 h; for IC50: read-out: IC50; for IC90: read-out: IC90
Description: as §1, §2, §3

[6] = tested on: RPMI8226 (multiple myeloma); test: MTT growth inhibition of multiple myeloma cells, 72 h; assay type: cell-based, human; conditions: Homo sapiens, RPMI 8226, 72 h; for IC50: read-out: IC50; for IC90: read-out: IC90
Description: Myeloma cell lines: RPMI8226 (multiple myeloma), purchased from Fuxiang Bio-tech Co. Ltd., Shanghai, China.
as §2
as §3, with “myeloma” for “leukemia”, “cells as above” for “cells”, “1640” for “RPMI-1640”, “adding” for “adding on the second day”

A549 (human lung cancer) = test: MTT growth inhibition of human solid tumor cells, 72 h; assay type: cell-based; conditions: Homo sapiens, A549, 72 h; for IC50: read-out: IC50; for IC90: read-out: IC90
Description: (§4) Hep-2 (laryngeal carcinoma), A549 (human lung cancer), CaES-17 (esophageal cancer cell), PC-3 (prostate cancer), CNE (nasopharyngeal carcinoma cell), and SK-OV-3 (ovarian cancer cell), all of which are purchased from China Center For Type Culture Collection; RKO (human colon adenocarcinoma cell), MGC 803 (human gastric cancer cell), MG63 (osteosarcoma) and U87 MG (malignant glioma cell), all of which are purchased from Fuxiang Bio-tech Co. Ltd., Shanghai, China; PANC-1 (pancreatic cancer), Hep G2 (human liver cancer cell), Becap37 (human breast cancer cell) and Hela (human cervical cancer cell), all of which are donated by Cancer Research Institute of Zhejiang University, China.
as §2
(§5) Obtaining 4000 well-growing human solid tumor cells and inoculating them into wells of a 96-well cell culture plate. The culture medium is DMEM High Glucose cell culture medium containing 10% fetal bovine serum. The plate is placed in a carbon dioxide cell incubator (5% CO2) at 37° C. and incubated for 24 hours. After adding the 2-aminated methylene or 2-esterified methylene tanshinone I derivatives of different concentrations and mixing uniformly, the plate is placed in a carbon dioxide cell incubator (5% CO2) at 37° C. and incubated for 72 hours. Then the viable cell concentration is determined by the MTT method.

[7] = tested on: Becap37 (human breast cancer cell); test: as above; assay type: cell-based; conditions: Homo sapiens, Becap-37, 72 h; for IC50: read-out: IC50; for IC90: read-out: IC90
Description: as §4, §2, §5

[8] = tested on: CNE (nasopharyngeal carcinoma cell); test: as above; assay type: cell-based; conditions: Homo sapiens; for IC50: read-out: IC50; for IC90: read-out: IC90
Description: as §4, §2, §5

[9] = tested on: CaES-17 (esophageal cancer cell); test: as above; assay type: cell-based; conditions: Homo sapiens, CaEs17, CaEs-17, 72 h; for IC50: read-out: IC50; for IC90: read-out: IC90
Description: as §4, §2, §5

[10] = tested on: Hela (human cervical cancer cell); test: as above; assay type: cell-based; conditions: Homo sapiens, HeLa, 72 h; for IC50: read-out: IC50; for IC90: read-out: IC90
Description: as §4, §2, §5

[11] = tested on: Hep G2 (human liver cancer cell); test: as above; assay type: cell-based; conditions: Homo sapiens, HepG2, Hep G2, 72 h; for IC50: read-out: IC50; for IC90: read-out: IC90
Description: as §4, §2, §5

[12] = tested on: Hep-2 (laryngeal carcinoma); test: as above; assay type: cell-based; conditions: Homo sapiens, HEp-2, 72 h; for IC50: read-out: IC50; for IC90: read-out: IC90
Description: as §4, §2, §5

MG63 (osteosarcoma) = test: as above; assay type: cell-based; conditions: Homo sapiens, MG-63, 72 h; for IC50: read-out: IC50; for IC90: read-out: IC90
Description: as §4, §2, §5

[13] = tested on: MGC 803 (human gastric cancer cell); test: as above; assay type: cell-based; conditions: Homo sapiens, MGC-803, 72 h; for IC50: read-out: IC50; for IC90: read-out: IC90
Description: as §4, §2, §5

[14] = tested on: PANC-1 (pancreatic cancer); test: as above; assay type: cell-based; conditions: Homo sapiens, PANC-1, 72 h; for IC50: read-out: IC50; for IC90: read-out: IC90
Description: as §4, §2, §5

PC-3 (prostate cancer) = test: as above; assay type: cell-based; conditions: Homo sapiens, PC-3, 72 h; for IC50: read-out: IC50; for IC90: read-out: IC90
Description: as §4, §2, §5

[15] = tested on: RKO (human colon adenocarcinoma cell); test: as above; assay type: cell-based; conditions: Homo sapiens; for IC50: read-out: IC50; for IC90: read-out: IC90
Description: as §4, §2, §5

[16] = tested on: SK-OV-3 (ovarian cancer cell); test: as above; assay type: cell-based; conditions: Homo sapiens, SK-OV-3, 72 h; for IC50: read-out: IC50; for IC90: read-out: IC90
Description: as §4, §2, §5

[17] = tested on: U87 MG (malignant glioma cell); test: as above; assay type: cell-based; conditions: Homo sapiens, U-87 MG, U87-MG, 72 h; for IC50: read-out: IC50; for IC90: read-out: IC90
Description: as §4, §2, §5

| Compound | IC50 [1] [µg/mL] | IC90 [1] [µg/mL] | IC50 [2] [µg/mL] | IC90 [2] [µg/mL] | IC50 [3] [µg/mL] | IC90 [3] [µg/mL] | IC50 [4] [µg/mL] | IC90 [4] [µg/mL] | IC50 [5] [µg/mL] | IC90 [5] [µg/mL] | IC50 [6] [µg/mL] | IC90 [6] [µg/mL] | IC50 (A549 (human lung cancer)) [µg/mL] | IC90 (A549 (human lung cancer)) [µg/mL] | IC50 [7] [µg/mL] | IC90 [7] [µg/mL] | IC50 [8] [µg/mL] | IC90 [8] [µg/mL] | IC50 [9] [µg/mL] | IC90 [9] [µg/mL] | other results |
| --- | --- | --- | --- | --- | --- | --- | --- | --- | --- | --- | --- | --- | --- | --- | --- | --- | --- | --- | --- | --- | --- |
| CCN(C)Cc1oc2c(c1C)C(=O)C(=O)c1c-2ccc2c(C)cccc12 [BS-TA-B03] | 3.3 (≈ 9.5 µM) | 6.8 (≈ 19.6 µM) | 2.36 (≈ 6.79 µM) | 6.15 (≈ 17.7 µM) | 1.22 (≈ 3.51 µM) | 2.69 (≈ 7.74 µM) | 0.81 (≈ 2.33 µM) | 2 (≈ 5.76 µM) | 0.92 (≈ 2.65 µM) | 3.01 (≈ 8.66 µM) | 2.83 (≈ 8.15 µM) | 5.87 (≈ 16.9 µM) | 0.8 (≈ 2.3 µM) | 4.43 (≈ 12.8 µM) | 4 (≈ 11.5 µM) | 9.37 (≈ 27 µM) | 8.8 (≈ 25.3 µM) | 43.6 (≈ 125 µM) | 5.55 (≈ 16 µM) | 10.3 (≈ 29.8 µM) | IC50 [10]: 3.99 µg/mL (≈ 11.5 µM); IC90 [10]: 11 µg/mL (≈ 31.5 µM); IC50 [11]: 4.69 µg/mL (≈ 13.5 µM); IC90 [11]: 22.1 µg/mL (≈ 63.6 µM); IC50 [12]: 6.11 µg/mL (≈ 17.6 µM); IC90 [12]: 18.5 µg/mL (≈ 53.1 µM); IC50 (MG63 (osteosarcoma)): 4.53 µg/mL (≈ 13 µM); IC90 (MG63 (osteosarcoma)): 13 µg/mL (≈ 37.4 µM); IC50 [13]: 3.86 µg/mL (≈ 11.1 µM); IC90 [13]: 7.99 µg/mL (≈ 23 µM); IC50 [14]: 3.14 µg/mL (≈ 9.04 µM); IC90 [14]: 16 µg/mL (≈ 46.1 µM); IC50 (PC-3 (prostate cancer)): 5.39 µg/mL (≈ 15.5 µM); IC90 (PC-3 (prostate cancer)): 12.3 µg/mL (≈ 35.5 µM); IC50 [15]: 0.49 µg/mL (≈ 1.41 µM); IC90 [15]: 14.6 µg/mL (≈ 41.9 µM); IC50 [16]: 12.8 µg/mL (≈ 36.9 µM); IC90 [16]: 21.7 µg/mL (≈ 62.4 µM); IC50 [17]: 2.36 µg/mL (≈ 6.79 µM); IC90 [17]: 3.85 µg/mL (≈ 11.1 µM) |
| Cc1c(CNCC2CCCCC2)oc2c1C(=O)C(=O)c1c-2ccc2c(C)cccc12 [BS-TA-B06] | 3.2 (≈ 7.97 µM) | 14.1 (≈ 35.1 µM) | 5.25 (≈ 13.1 µM) | 16 (≈ 39.8 µM) | 0.81 (≈ 2.02 µM) | 1.8 (≈ 4.48 µM) | 0.57 (≈ 1.42 µM) | 1.73 (≈ 4.31 µM) | 2.13 (≈ 5.31 µM) | 7.29 (≈ 18.2 µM) | 6.16 (≈ 15.3 µM) | 16 (≈ 39.8 µM) | 1.59 (≈ 3.96 µM) | 10 (≈ 24.9 µM) | 5.9 (≈ 14.7 µM) | > 16 | 11.8 (≈ 29.4 µM) | > 16 | ≥ 19.3 | > 16 | IC50 [10]: 7.49 µg/mL (≈ 18.7 µM); IC90 [10]: > 16 µg/mL; IC50 [11]: 13.5 µg/mL (≈ 33.6 µM); IC90 [11]: > 16 µg/mL; IC50 [12]: 9.23 µg/mL (≈ 23 µM); IC90 [12]: > 16 µg/mL; IC50 (MG63 (osteosarcoma)): 4.76 µg/mL (≈ 11.9 µM); IC90 (MG63 (osteosarcoma)): > 16 µg/mL; IC50 [13]: 7.82 µg/mL (≈ 19.5 µM); IC90 [13]: > 16 µg/mL; IC50 [14]: 1.57 µg/mL (≈ 3.91 µM); IC90 [14]: 16.7 µg/mL (≈ 41.6 µM); IC50 (PC-3 (prostate cancer)): 10.3 µg/mL (≈ 25.8 µM); IC90 (PC-3 (prostate cancer)): 24.5 µg/mL (≈ 60.9 µM); IC50 [15]: 3.42 µg/mL (≈ 8.52 µM); IC90 [15]: > 16 µg/mL; IC50 [16]: > 16 µg/mL; IC90 [16]: > 16 µg/mL; IC50 [17]: 6.5 µg/mL (≈ 16.2 µM); IC90 [17]: > 16 µg/mL |
